Data reported in ChEMBL document CHEMBL3085704, “Methyl-thiazoles: a novel mode of inhibition with the potential to develop novel inhibitors targeting InhA in Mycobacterium tuberculosis” (J Med Chem, 2013).

Legend:
Format in all cases: functional
[1] = system: Mycobacterium tuberculosis; assay: Antitubercular activity against Mycobacterium tuberculosis H37Rv expressing inhA M103L mutant assessed as parasite growth inhibition after 7 days by Alamar Blue assay
[2] = system: Mycobacterium tuberculosis; assay: Antitubercular activity against Mycobacterium tuberculosis H37Rv expressing inhA M103I mutant assessed as parasite growth inhibition after 7 days by Alamar Blue assay
[3] = system: Mycobacterium tuberculosis; assay: Antitubercular activity against Mycobacterium tuberculosis H37Rv expressing inhA G96V mutant assessed as parasite growth inhibition after 7 days by Alamar Blue assay

SMILES | MIC [1] | MIC [2] | MIC [3]
Cc1csc([C@](C)(O)c2nnc(Nc3ccn(Cc4c(F)cccc4F)n3)s2)n1 | >25 µM | >25 µM | >25 µM
CO[C@H]1/C=C/O[C@@]2(C)Oc3c(C)c(O)c4c(O)c(c(/C=N/N5CCN(C)CC5)c(O)c4c3C2=O)NC(=O)/C(C)=C\C=C\[C@H](C)[C@H](O)[C@@H](C)[C@@H](O)[C@@H](C)[C@H](OC(C)=O)[C@@H]1C [RIFAMPIN] | 0.007 µg/mL | 0.007 µg/mL | 0.01 µg/mL
COc1c(N2C[C@@H]3CCCN[C@@H]3C2)c(F)cc2c(=O)c(C(=O)O)cn(C3CC3)c12 [MOXIFLOXACIN] | 0.12 µg/mL | 0.12 µg/mL | 0.12 µg/mL
Cc1csc(C(C)(O)c2nnc(Nc3ncn(Cc4c(F)cccc4F)n3)s2)n1 (racemic) | >25 µM | >25 µM | >25 µM
NNC(=O)c1ccncc1 [ISONIAZID] | 0.03 µg/mL | 0.06 µg/mL | 0.06 µg/mL
